Test results from BigSolDB 2.1.

C[C@H](CCC(=O)O)[C@H]1CC[C@H]2[C@@H]3[C@H](O)C[C@@H]4C[C@H](O)CC[C@]4(C)[C@H]3C[C@H](O)[C@]12C
solubility (mole fraction)
Details | in 2-pentanone | in cyclohexanone | in ethyl acetate | in furfural | in gamma-valerolactone | in methyl acetate | in n-butanol | in n-butyl acetate | in n-hexanol | in n-octanol
283.15 K | 0.00141 | 0.00753 | 0.000154 | 3.55e-05 | 0.000822 | 7.59e-05 | 0.00219 | 0.000224 | 0.0156 | 0.0154
293.15 K | 0.00164 | 0.00842 | 0.000242 | 7.5e-05 | 0.00154 | 0.000128 | 0.00245 | 0.000284 | 0.0166 | 0.0171
303.15 K | 0.00206 | 0.00952 | 0.000392 | 0.000127 | 0.00258 | 0.000232 | 0.0027 | 0.000378 | 0.0182 | 0.0183
313.15 K | 0.00247 | 0.0106 | 0.000536 | 0.000197 | 0.00412 | 0.000489 | 0.00296 | 0.000492 | 0.0202 | 0.0201
323.15 K | 0.00299 | 0.012 | 0.000713 | 0.000349 | 0.00604 | 0.000811 | 0.00337 | 0.000613 | 0.0223 | 0.0222
333.15 K | 0.00345 | 0.0137 | 0.000942 | 0.000563 | 0.00978 | – | 0.00389 | 0.000765 | 0.0236 | 0.0242

C[C@H](CCC(=O)O)[C@H]1CC[C@H]2[C@@H]3CC[C@@H]4C[C@H](O)CC[C@]4(C)[C@H]3C[C@H](O)[C@]12C
solubility (mole fraction)
Details | in 2-pentanone | in cyclohexanone | in ethyl acetate | in furfural | in gamma-valerolactone | in methyl acetate | in n-butanol | in n-butyl acetate | in n-hexanol | in n-octanol
283.15 K | 0.000911 | 0.00147 | 0.000187 | 0.000227 | 0.000904 | 0.000224 | 0.00134 | 0.000222 | 0.00773 | 0.00898
293.15 K | 0.00145 | 0.00214 | 0.000304 | 0.000293 | 0.00147 | 0.000382 | 0.00159 | 0.000275 | 0.00902 | 0.0116
303.15 K | 0.00198 | 0.00302 | 0.000448 | 0.000478 | 0.00217 | 0.00071 | 0.00189 | 0.000415 | 0.0102 | 0.0135
313.15 K | 0.00286 | 0.00416 | 0.000771 | 0.000599 | 0.00304 | 0.00107 | 0.00246 | 0.000609 | 0.0125 | 0.016
323.15 K | 0.00378 | 0.00567 | 0.0011 | 0.000913 | 0.00509 | 0.0016 | 0.00275 | 0.000875 | 0.0153 | 0.0192
333.15 K | 0.0049 | 0.00744 | 0.00147 | 0.0014 | 0.00757 | – | 0.00315 | 0.00127 | 0.0174 | 0.0232
